{
  "source": "EPA's ToxValDB 9.5 (doi:10.2903/j.efsa.2019.5595)",
  "key": {"Typhlodromus pyri": {"tested_on": "Typhlodromus pyri", "test": "LR50; higher = less toxic", "conditions": "acute; mortality"}, "Hyalella azteca": {"tested_on": "Hyalella azteca", "conditions": "acute; duration: 96 hours; mortality"}, "Bibionidae": {"tested_on": "Bibionidae", "conditions": "chronic/long-term; duration: 29 days"}, "Oryctolagus sp.": {"tested_on": "Oryctolagus sp.", "conditions": "developmental; development"}, "Cyprinodon variegatus": {"tested_on": "Cyprinodon variegatus", "conditions": "acute; duration: 96 hours; oral; feed; mortality"}, "Lepomis macrochirus": {"tested_on": "Lepomis macrochirus", "conditions": "acute; oral; feed; mortality"}, "Tagia sp.": {"tested_on": "Tagia sp.", "conditions": "acute; duration: 14 days; mortality"}, "Oncorhynchus mykiss": {"tested_on": "Oncorhynchus mykiss", "conditions": "acute; duration: 96 hours; oral; feed; mortality"}, "Cyprinus carpio": {"tested_on": "Cyprinus carpio", "conditions": "chronic/long-term"}, "Apis mellifera": {"tested_on": "Apis mellifera", "conditions": "acute, duration: 48 hours, mortality"}},
  "data": [
    {"smiles": "N#CN=C1SCCN1Cc1ccc(Cl)nc1", "note": "[Thiacloprid]", "values": [
      {"measurement": "LR50", "setting": "Typhlodromus pyri", "value": 0.331, "unit": "g/ha"},
      {"measurement": "LC50", "setting": "Hyalella azteca", "value": "> 47.6", "unit": "µg/mL"},
      {"measurement": "NOEC", "setting": "Bibionidae", "value": 0.63, "unit": "µg/kg"},
      {"measurement": "NOAEL", "setting": "Oryctolagus sp.", "value": 2, "unit": "mg/kg-day"},
      {"measurement": "LC50", "setting": "Cyprinodon variegatus", "value": 19.7, "unit": "µg/mL"},
      {"measurement": "LD50", "setting": "Rattus norvegicus; acute, oral, Fischer 344, mortality", "value": 177, "unit": "mg/kg-day"},
      {"measurement": "NOAEL", "setting": "Rattus norvegicus; chronic, histopathology: nonneoplastic", "value": 1.2, "unit": "mg/kg-day"},
      {"measurement": "NOAEL", "setting": "Rattus norvegicus; developmental, development", "value": 2, "unit": "mg/kg-day"},
      {"measurement": "NOAEL", "setting": "Rattus norvegicus; reproduction developmental, reproduction", "value": 3.3, "unit": "mg/kg-day"},
      {"measurement": "NOAEL", "setting": "Serinus canaria; acute, oral, unspecified, mortality", "value": 15, "unit": "mg/kg-day"},
      {"measurement": "LD50", "setting": "Serinus canaria; chronic/long-term", "value": 3.5, "unit": "mg/kg-day"},
      {"measurement": "LC50", "setting": "Lepomis macrochirus", "value": "> 78.6", "unit": "µg/mL"},
      {"measurement": "LC50", "setting": "Tagia sp.", "value": 105, "unit": "mg/kg"},
      {"measurement": "LC50", "setting": "Oncorhynchus mykiss", "value": "> 90.1", "unit": "µg/mL"},
      {"measurement": "NOEC", "setting": "Cyprinus carpio", "value": 4.5, "unit": "µg/L"},
      {"measurement": "LD50", "setting": "Apis mellifera; dermal", "value": 38.8, "unit": "µg/piece"},
      {"measurement": "LD50", "setting": "Apis mellifera; oral, unspecified", "value": 17.3, "unit": "µg/piece"}
    ]}
  ]
}
